Assay results as given in patent publication US8247424B2, “Fredericamycin derivatives” (Zentopharm GmbH, priority 2002, dated 2012).
Values after ≈ are worked out from the molar mass of the structure shown.

Test: Biological activity against 12 cancer cell lines, efficacy (IC70) averaged over all cell lines;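 note: panel also covers renal lines RXF 944L and RXF 486L, uterine UXF 1138L, and prostate lines PRXF PC3M and PRXF 22RV1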
Format: cell-based
Details: averaged over all 12 cancer cell lines, 5 test concentrations
Procedure: LCL (H460, lung), MACL (MCF7, breast), LXFL (52L, lung), LXFA (629L, lung), MEXF (462NL, melanoma), MEXF (514L, melanoma), MAXF (401NL, breast), RXF (944L, renal), RXF (486L, renal), UXF (1138L, uterus), PRXF (PC3M, prostate), PRXF (22RV1).

Structure (SMILES) | IC70 [µg/mL]
C/C=C/C=C/c1cc2c(F)c3c(c(O)c2c(=O)[nH]1)[C@@]1(CC3)C(=O)c2c(O)c3c(c(O)c2C1=O)C(=O)C(OC)=CC3=O [Example 23, (8S)-5-fluoro-4′,9,9′-trihydroxy-6′-methoxy-3-[(1E,3E)-penta-1,3-dienyl]-6,7-dihydrospiro[cyclopenta[g]isoquinoline-8,2′-cyclopenta[b]-naphthalene]-1,1′,3′,5′,8′(2H)-pentone] | 0.011 (≈ 0.0197 µM)
COC1=CC(=O)c2c(O)c3c(c(O)c2C1=O)C(=O)C1(CCc2cc4cc(C=NOCc5ccccc5)[nH]c(=O)c4c(O)c21)C3=O (centres unmarked) [Example 121, 4′,9,9′-Trihydroxy-6′-methoxy-1,1′,3′,5′,8′-pentaoxo-1,1′,2,3′,5′,6,7,8′-octahydrospiro[cyclopenta[g]isoquinoline-8,2′-cyclopenta[b]-naphthalene]-3-carbaldehyde O-benzyloxime] | 0.202 (≈ 0.333 µM)
COC1=CC(=O)c2c(O)c3c(c(O)c2C1=O)C(=O)C1(CCc2cc4cc(C=NOCc5cccc(Cl)c5)[nH]c(=O)c4c(O)c21)C3=O (centres unmarked) [Example 127, 4′,9,9′-Trihydroxy-6′-methoxy-1,1′,3′,5′,8′-pentaoxo-1,1′,2,3′,5′,6,7,8′-octahydrospiro[cyclopenta[g]isoquinoline-8,2′-cyclopenta[b]-naphthalene]-3-carbaldehyde O-(3-chlorobenzyl)oxime] | 0.155 (≈ 0.242 µM)
COC1=CC(=O)c2c(O)c3c(c(O)c2C1=O)C(=O)[C@]1(CCc2c1c(O)c1c(=O)[nH]c(C=NOCCN4CCOCC4)cc1c2Br)C3=O [Example 192, (8S)-5-bromo-4′,9,9′-trihydroxy-6′-methoxy-1,1′,3′,5′,8′-pentaoxo-1,1′,2,3′,5′,6,7,8′-octahydrospiro[cyclopenta[g]isoquinoline-8,2′-cyclopenta[b]-naphthalene]-3-carbaldehyde O-[2-morpholine-4-yl-ethyl)oxime] | 0.075 (≈ 0.106 µM)
CON=Cc1cc2c(Br)c3c(c(O)c2c(=O)[nH]1)[C@@]1(CC3)C(=O)c2c(O)c3c(c(O)c2C1=O)C(=O)C(OC)=CC3=O [Example 196, (8S)-5-bromo-4′,9,9′-trihydroxy-6′-methoxy-1,1′,3′,5′,8′-pentaoxo-1,1′,2,3′,5′,6,7,8′-octahydrospiro[cyclopenta[g]isoquinoline-8,2′-cyclopenta[b]-naphthalene]-3-carbaldehyde O-methyloxime] | 0.095 (≈ 0.156 µM)
COC1=CC(=O)c2c(O)c3c(c(O)c2C1=O)C(=O)[C@]1(CCc2c1c(O)c1c(=O)[nH]c(C=NOCc4ccccc4)cc1c2Br)C3=O [Example 197, (8S)-5-bromo-4′,9,9′-trihydroxy-6′-methoxy-1,1′,3′,5′,8′-pentaoxo-1,1′,2,3′,5′,6,7,8′-octahydrospiro[cyclopenta[g]isoquinoline-8,2′-cyclopenta[b]-naphthalene]-3-carbaldehyde-O-benzyloxime] | 0.034 (≈ 0.0496 µM)
COC1=CC(=O)c2c(O)c3c(c(O)c2C1=O)C(=O)[C@]1(CCc2c1c(O)c1c(=O)[nH]c(C=NO)cc1c2Br)C3=O [Example 198, (8S)-5-bromo-4′,9,9′-trihydroxy-6′-methoxy-1,1′,3′,5′,8′-pentaoxo-1,1′,2,3′,5′,6,7,8′-octahydrospiro[cyclopenta[g]isoquinoline-8,2′-cyclopenta[b]-naphthalene]-3-carbaldehyde oxime] | 0.256 (≈ 0.43 µM)
COC1=CC(=O)c2c(O)c3c(c(O)c2C1=O)C(=O)[C@]1(CCc2c1c(O)c1c(=O)[nH]c(C=NOCc4cccc(Cl)c4)cc1c2Br)C3=O [Example 203, (8S)-5-bromo-4′,9,9′-trihydroxy-6′-methoxy-1,1′,3′,5′,8′-pentaoxo-1,1′,2,3′,5′,6,7,8′-octahydrospiro[cyclopenta[g]isoquinoline-8,2′-cyclopenta[b]-naphthalene]-3-carbaldehyde O-(3-chlorobenzyl)oxime] | 0.159 (≈ 0.221 µM)
COC1=CC(=O)c2c(O)c3c(c(O)c2C1=O)C(=O)[C@]1(CCc2c1c(O)c1c(=O)[nH]c(C=NOCCCN4CCN(c5cccc(Cl)c5)CC4)cc1c2Br)C3=O [Example 212, (8S)-5-bromo-4′,9,9′-trihydroxy-6′-methoxy-1,1′,3′,5′,8′-pentaoxo-1,1′,2,3′,5′,6,7,8′-octahydrospiro[cyclopenta[g]isoquinoline-8,2′-cyclopenta[b]-naphthalene]-3-carbaldehyde O-[3-(4-(3-chlorophenyl)-piperazine-1-yl)propyl]oxime] | 0.21 (≈ 0.252 µM)
COC1=CC(=O)c2c(O)c3c(c(O)c2C1=O)C(=O)[C@]1(CCc2cc4cc(C=NOC(C)C)[nH]c(=O)c4c(O)c21)C3=O [Example 214, (8S)-4′,9,9′-trihydroxy-6′-methoxy-1,1′,3′,5′,8′-pentaoxo-1,1′,2,3′,5′,6,7,8′-octahydrospiro[cyclopenta[g]isoquinoline-8,2′-cyclopenta[b]-naphthalene]-3-carbaldehyde O-isopropyloxime] | 0.022 (≈ 0.0394 µM)
CCCCCCON=Cc1cc2cc3c(c(O)c2c(=O)[nH]1)[C@@]1(CC3)C(=O)c2c(O)c3c(c(O)c2C1=O)C(=O)C(OC)=CC3=O [Example 215, (8S)-4′,9,9′-trihydroxy-6′-methoxy-1,1′,3′,5′,8′-pentaoxo-1,1′,2,3′,5′,6,7,8′-octahydrospiro[cyclopenta[g]isoquinoline-8,2′-cyclopenta[b]-naphthalene]-3-carbaldehyde O-n-hexyloxime] | 0.072 (≈ 0.12 µM)
COC1=CC(=O)c2c(O)c3c(c(O)c2C1=O)C(=O)[C@]1(CCc2cc4cc(C=NOCc5ccc(Cl)cc5)[nH]c(=O)c4c(O)c21)C3=O [Example 217, (8S)-4′,9,9′-trihydroxy-6′-methoxy-1,1′,3′,5′,8′-pentaoxo-1,1′,2,3′,5′,6,7,8′-octahydrospiro[cyclopenta[g]isoquinoline-8,2′-cyclopenta[b]-naphthalene]-3-carbaldehyde O-(4-chlorobenzyl)oxime] | 0.129 (≈ 0.201 µM)
COC1=CC(=O)c2c(O)c3c(c(O)c2C1=O)C(=O)[C@]1(CCc2cc4cc(C=NOCc5cccc(F)c5)[nH]c(=O)c4c(O)c21)C3=O [Example 218, (8S)-4′,9,9′-trihydroxy-6′-methoxy-1,1′,3′,5′,8′-pentaoxo-1,1′,2,3′,5′,6,7,8′-octahydrospiro[cyclopenta[g]isoquinoline-8,2′-cyclopenta[b]-naphthalene]-3-carbaldehyde O-(3-fluorobenzyl)oxime] | 0.076 (≈ 0.122 µM)
COC1=CC(=O)c2c(O)c3c(c(O)c2C1=O)C(=O)[C@]1(CCc2c1c(O)c1c(=O)[nH]c(C=NOC(C)C)cc1c2Br)C3=O [Example 224, (8S)-5-bromo-4′,9,9′-trihydroxy-6′-methoxy-1,1′,3′,5′,8′-pentaoxo-1,1′,2,3′,5′,6,7,8′-octahydrospiro[cyclopenta[g]isoquinoline-8,2′-cyclopenta[b]-naphthalene]-3-carbaldehyde O-isopropyloxime] | 0.047 (≈ 0.0737 µM)
CCCCCCON=Cc1cc2c(Br)c3c(c(O)c2c(=O)[nH]1)[C@@]1(CC3)C(=O)c2c(O)c3c(c(O)c2C1=O)C(=O)C(OC)=CC3=O [Example 225, (8S)-5-bromo-4′,9,9′-trihydroxy-6′-methoxy-1,1′,3′,5′,8′-pentaoxo-1,1′,2,3′,5′,6,7,8′-octahydrospiro[cyclopenta[g]isoquinoline-8,2′-cyclopenta[b]-naphthalene]-3-carbaldehyde O-n-hexyloxime] | 0.111 (≈ 0.163 µM)
CCCCCCON=Cc1cc2c(I)c3c(c(O)c2c(=O)[nH]1)[C@@]1(CC3)C(=O)c2c(O)c3c(c(O)c2C1=O)C(=O)C(OC)=CC3=O [Example 230, (8S)-5-iodo-4′,9,9′-trihydroxy-6′-methoxy-1,1′,3′,5′,8′-pentaoxo-1,1′,2,3′,5′,6,7,8′-octahydrospiro[cyclopenta[g]isoquinoline-8,2′-cyclopenta[b]-naphthalene]-3-carbaldehyde O-n-hexyloxime] | 0.091 (≈ 0.125 µM)
COC1=CC(=O)c2c(O)c3c(c(O)c2C1=O)C(=O)[C@]1(CCc2c1c(O)c1c(=O)[nH]c(C=NOCc4ccc(Cl)cc4)cc1c2I)C3=O [Example 232, (8S)-5-iodo-4′,9,9′-trihydroxy-6′-methoxy-1,1′,3′,5′,8′-pentaoxo-1,1′,2,3′,5′,6,7,8′-octahydrospiro[cyclopenta[g]isoquinoline-8,2′-cyclopenta[b]-naphthalene]-3-carbaldehyde O-(4-chlorobenzyl)oxime] | 0.317 (≈ 0.413 µM)
COC1=CC(=O)c2c(O)c3c(c(O)c2C1=O)C(=O)[C@]1(CCc2c1c(O)c1c(=O)[nH]c(C=NOCc4cccc(F)c4)cc1c2I)C3=O [Example 233, (8S)-5-iodo-4′,9,9′-trihydroxy-6′-methoxy-1,1′,3′,5′,8′-pentaoxo-1,1′,2,3′,5′,6,7,8′-octahydrospiro[cyclopenta[g]isoquinoline-8,2′-cyclopenta[b]-naphthalene]-3-carbaldehyde O-(3-fluorobenzyl)oxime] | 0.1 (≈ 0.133 µM)
COC1=CC(=O)c2c(O)c3c(c(O)c2C1=O)C(=O)[C@]1(CCc2c1c(O)c1c(=O)[nH]c(C=NOCc4ccccc4)cc1c2I)C3=O [Example 234, (8S)-5-iodo-4′,9,9′-trihydroxy-6′-methoxy-1,1′,3′,5′,8′-pentaoxo-1,1′,2,3′,5′,6,7,8′-octahydrospiro[cyclopenta[g]isoquinoline-8,2′-cyclopenta[b]-naphthalene]-3-carbaldehyde O-benzyloxime] | 0.052 (≈ 0.071 µM)
COC1=CC(=O)c2c(O)c3c(c(O)c2C1=O)C(=O)[C@]1(CCc2c1c(O)c1c(=O)[nH]c(C=NOCCN4CCOCC4)cc1c2I)C3=O [Example 235, (8S)-5-iodo-4′,9,9′-trihydroxy-6′-methoxy-1,1′,3′,5′,8′-pentaoxo-1,1′,2,3′,5′,6,7,8′-octahydrospiro[cyclopenta[g]isoquinoline-8,2′-cyclopenta[b]-naphthalene]-3-carbaldehyde O-[2-morpholine-4-yl-ethyl)oxime] | 0.081 (≈ 0.107 µM)
CON=Cc1cc2c(I)c3c(c(O)c2c(=O)[nH]1)[C@@]1(CC3)C(=O)c2c(O)c3c(c(O)c2C1=O)C(=O)C(OC)=CC3=O [Example 236, (8S)-5-iodo-4′,9,9′-trihydroxy-6′-methoxy-1,1′,3′,5′,8′-pentaoxo-1,1′,2,3′,5′,6,7,8′-octahydrospiro[cyclopenta[g]isoquinoline-8,2′-cyclopenta[b]-naphthalene]-3-carbaldehyde O-methyloxime] | 0.121 (≈ 0.184 µM)
COc1cccc2c1C(=O)c1c(O)c3c(c(O)c1C2=O)C[C@@](O)(C(=O)CO)C[C@@H]3O[C@H]1C[C@H](N)[C@H](O)[C@H](C)O1 [adriamycin] | 0.021 (≈ 0.0386 µM)
C/C=C/C=C/c1cc2cc3c(c(O)c2c(=O)[nH]1)C1(CC3)C(=O)c2c(O)c3c(c(O)c2C1=O)C(=O)C(OC)=CC3=O (centres unmarked) [fredericamycin, fredericamycin A] | 0.279 (≈ 0.517 µM)
